Data on 29 molecules can be found in US11192891B2, “Diazaspiro ROCK inhibitors” (BRISTOL-MYERS SQUIBB COMPANY, priority 2017, dated 2021).

pIC50: −log10 of the molar value.

A word on the pIC50: it is −log10 of the IC50, conventionally taken in molar units. Read a low pIC50 as a large IC50.

ROCK2, sequence (O75116 whole entry, species assumed): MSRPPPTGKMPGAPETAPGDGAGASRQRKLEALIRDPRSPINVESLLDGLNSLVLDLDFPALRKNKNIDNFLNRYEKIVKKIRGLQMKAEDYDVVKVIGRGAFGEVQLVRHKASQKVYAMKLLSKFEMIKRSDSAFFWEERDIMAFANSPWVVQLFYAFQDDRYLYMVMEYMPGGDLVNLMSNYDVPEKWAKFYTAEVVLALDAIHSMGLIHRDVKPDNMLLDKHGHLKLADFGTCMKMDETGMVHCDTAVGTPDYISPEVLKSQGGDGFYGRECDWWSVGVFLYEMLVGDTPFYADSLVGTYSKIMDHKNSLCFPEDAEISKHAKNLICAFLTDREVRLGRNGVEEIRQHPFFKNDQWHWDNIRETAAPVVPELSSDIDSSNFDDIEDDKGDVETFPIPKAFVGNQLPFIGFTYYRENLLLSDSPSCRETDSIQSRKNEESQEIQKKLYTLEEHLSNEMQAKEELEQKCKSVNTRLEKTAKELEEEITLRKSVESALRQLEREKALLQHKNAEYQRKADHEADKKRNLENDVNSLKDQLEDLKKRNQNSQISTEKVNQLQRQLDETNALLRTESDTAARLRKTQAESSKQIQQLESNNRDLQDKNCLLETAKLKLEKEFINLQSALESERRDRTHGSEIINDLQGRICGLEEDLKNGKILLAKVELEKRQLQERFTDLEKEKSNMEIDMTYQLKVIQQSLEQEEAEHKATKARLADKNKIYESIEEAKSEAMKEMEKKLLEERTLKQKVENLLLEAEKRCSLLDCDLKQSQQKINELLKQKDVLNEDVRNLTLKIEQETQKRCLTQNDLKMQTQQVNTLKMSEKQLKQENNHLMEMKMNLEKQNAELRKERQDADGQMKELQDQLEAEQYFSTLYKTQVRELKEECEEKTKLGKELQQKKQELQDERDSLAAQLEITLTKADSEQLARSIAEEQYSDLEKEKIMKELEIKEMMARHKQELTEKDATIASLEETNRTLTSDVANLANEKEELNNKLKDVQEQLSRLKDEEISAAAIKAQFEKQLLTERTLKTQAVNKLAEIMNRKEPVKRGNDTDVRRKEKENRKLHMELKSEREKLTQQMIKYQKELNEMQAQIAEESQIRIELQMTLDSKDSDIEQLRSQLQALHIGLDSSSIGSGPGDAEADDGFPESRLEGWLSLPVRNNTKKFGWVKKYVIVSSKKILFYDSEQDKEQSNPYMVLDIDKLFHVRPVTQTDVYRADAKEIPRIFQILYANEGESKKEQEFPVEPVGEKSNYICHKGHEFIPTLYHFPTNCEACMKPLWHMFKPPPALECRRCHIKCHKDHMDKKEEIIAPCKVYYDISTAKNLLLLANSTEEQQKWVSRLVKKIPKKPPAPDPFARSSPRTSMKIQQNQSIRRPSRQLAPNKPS

The test has as its target ROCK2 (Homo sapiens, UniProt O75116). Kind of test: ROCK kinase inhibition assay, FITC peptide substrate, LABCHIP 3000 readout. Format: biochemical. To be noted: 5 μM ATP, 1.5 μM peptide substrate. Summed up: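 Rho kinase variants started the reaction with compound present (DMSO <2%); after incubation, EDTA stop, and phosphorylated and non-phosphorylated peptide separated by microfluidic electrophoresis. Dose-response format, inhibition calculated at each concentration.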
On to `COc1cc(N2CCC3(CCN(C(=O)c4ccc5c(c4)nnn5C)CC3)C2=O)ccc1-c1cn[nH]c1` [Example 196, 2-[3-methoxy-4-(1H-pyrazol-4-yl)phenyl]-8-(1-methyl-1H-1,2,3-benzotriazole-5-carbonyl)-2,8-diazaspiro[4.5]decan-1-one], for which the pIC50 is 8.04.

The molecule `COc1cc(N2CCC3(CCN(C(=O)c4cccc5[nH]cnc45)CC3)C2=O)ccc1-c1cn[nH]c1` [Example 197, 8-(1H-1,3-benzodiazole-4-carbonyl)-2-[3-methoxy-4-(1H-pyrazol-4-yl)phenyl]-2,8-diazaspiro[4.5]decan-1-one] gave a pIC50 of 7.21.

Turning to `COc1cc(N2CCC3(CCN(C(=O)c4cnn5cccnc45)CC3)C2=O)ccc1-c1cn[nH]c1` [Example 198, 2-[3-methoxy-4-(1H-pyrazol-4-yl)phenyl]-8-{pyrazolo[1,5-a]pyrimidine-3-carbonyl}-2,8-diazaspiro[4.5]decan-1-one], the pIC50 was 5.97.

As for `COc1ccc2c(OC)ccc(C(=O)N3CCC4(CC3)CCN(c3ccc(-c5cn[nH]c5)c(OC)c3)C4=O)c2c1` [Example 199, 8-(4,7-dimethoxynaphthalene-1-carbonyl)-2-[3-methoxy-4-(1H-pyrazol-4-yl)phenyl]-2,8-diazaspiro[4.5]decan-1-one], the pIC50 is 6.73.

`COc1cc(N2CCC3(CCN(C(=O)c4cc(C(C)C)n5ncnc(O)c45)CC3)C2=O)ccc1-c1cn[nH]c1` [Example 200, 8-[4-hydroxy-7-(propan-2-yl)pyrrolo[2,1-f][1,2,4]triazine-5-carbonyl]-2-[3-methoxy-4-(1H-pyrazol-4-yl)phenyl]-2,8-diazaspiro[4.5]decan-1-one] gave a negative logarithm of the IC50 (pIC50) of 8.68.

Take `COc1cc(N2CCC3(CCN(C(=O)c4c[nH]c5ccc(C#N)cc45)CC3)C2=O)ccc1-c1cn[nH]c1` [Example 201, 3-{2-[3-methoxy-4-(1H-pyrazol-4-yl)phenyl]-1-oxo-2,8-diazaspiro[4.5]decane-8-carbonyl}-1H-indole-5-carbonitrile]: the pIC50 was 6.14.

Take `COc1cc(N2CCC3(CCN(C(=O)c4ccn5nc[nH]c(=O)c45)CC3)C2=O)ccc1-c1cn[nH]c1` [Example 202, 2-[3-methoxy-4-(1H-pyrazol-4-yl)phenyl]-8-{4-oxo-3H,4H-pyrrolo[2,1-f][1,2,4]triazine-5-carbonyl}-2,8-diazaspiro[4.5]decan-1-one]: the negative logarithm of the IC50 (pIC50) was 8.27.

With `COc1cc(N2CCC3(CCN(C(=O)c4cccc5ccncc45)CC3)C2=O)ccc1-c1cn[nH]c1` [Example 203, 8-(isoquinoline-8-carbonyl)-2-[3-methoxy-4-(1H-pyrazol-4-yl)phenyl]-2,8-diazaspiro[4.5]decan-1-one], the negative logarithm of the IC50 (pIC50) was 6.49.

Take `COCCN1Cc2cccc(C(=O)N3CCC4(CC3)CCN(c3ccc(-c5cn[nH]c5)c(OC)c3)C4=O)c2C1=O` [Example 204, 2-[3-methoxy-4-(1H-pyrazol-4-yl)phenyl]-8-[2-(2-methoxyethyl)-3-oxo-2,3-dihydro-1H-isoindole-4-carbonyl]-2,8-diazaspiro[4.5]decan-1-one]: the pIC50 is 7.30.

Take `COc1cc(N2CCC3(CCN(C(=O)c4ccc(N5CCN(C(=O)OC(C)(C)C)CC5)cc4)CC3)C2=O)ccc1-c1cn[nH]c1` [Example 205, tert-butyl 4-(4-{2-[3-methoxy-4-(1H-pyrazol-4-yl)phenyl]-1-oxo-2,8-diazaspiro[4.5]decane-8-carbonyl}phenyl)piperazine-1-carboxylate]: the negative logarithm of the IC50 (pIC50) is 8.05.

In the case of `COc1ccc(S(=O)(=O)N2CCC3(CCN(c4ccc(-c5cn[nH]c5)c(OC)c4)C3=O)CC2)cc1` [Example 206, 2-[3-methoxy-4-(1H-pyrazol-4-yl)phenyl]-8-(4-methoxybenzenesulfonyl)-2,8-diazaspiro[4.5]decan-1-one], the negative-log IC50 (pIC50) is 6.30.

Regarding `COc1cccc(S(=O)(=O)N2CCC3(CCN(c4ccc(-c5cn[nH]c5)c(OC)c4)C3=O)CC2)c1` [Example 207, 2-[3-methoxy-4-(1H-pyrazol-4-yl)phenyl]-8-(3-methoxybenzenesulfonyl)-2,8-diazaspiro[4.5]decan-1-one], the pIC50 was 6.58. Compared with the last molecule, the pIC50 is 0.28 log units higher.

As to `COC(=O)c1ccc(S(=O)(=O)N2CCC3(CCN(c4ccc(-c5cn[nH]c5)c(OC)c4)C3=O)CC2)o1` [Example 208, methyl 5-({2-[3-methoxy-4-(1H-pyrazol-4-yl)phenyl]-1-oxo-2,8-diazaspiro[4.5]decan-8-yl}sulfonyl)furan-2-carboxylate], the pIC50 was 5.68.

`COc1cc(N2CCC3(CCN(S(=O)(=O)c4ccc5[nH]c(=O)[nH]c(=O)c5c4)CC3)C2=O)ccc1-c1cn[nH]c1` [Example 209, 6-({2-[3-methoxy-4-(1H-pyrazol-4-yl)phenyl]-1-oxo-2,8-diazaspiro[4.5]decan-8-yl}sulfonyl)-1,2,3,4-tetrahydroquinazoline-2,4-dione] had a pIC50 of 6.39.

The molecule `COc1cc(N2CCC3(CCN(S(=O)(=O)c4ccc5c(c4)C(=O)NC5=O)CC3)C2=O)ccc1-c1cn[nH]c1` [Example 210, 5-({2-[3-methoxy-4-(1H-pyrazol-4-yl)phenyl]-1-oxo-2,8-diazaspiro[4.5]decan-8-yl}sulfonyl)-2,3-dihydro-1H-isoindole-1,3-dione] gave a pIC50 of 5.64.

For `COc1cc(N2CCC3(CCN(S(=O)(=O)c4ccc5ncsc5c4)CC3)C2=O)ccc1-c1cn[nH]c1` [Example 211, 8-(1,3-benzothiazole-6-sulfonyl)-2-[3-methoxy-4-(1H-pyrazol-4-yl)phenyl]-2,8-diazaspiro[4.5]decan-1-one], the pIC50 is 7.34.

The molecule `COc1ccc(S(=O)(=O)N2CCC3(CCN(c4ccc(-c5cn[nH]c5)c(OC)c4)C3=O)CC2)cc1F` [Example 212, 8-(3-fluoro-4-methoxybenzenesulfonyl)-2-[3-methoxy-4-(1H-pyrazol-4-yl)phenyl]-2,8-diazaspiro[4.5]decan-1-one] showed a pIC50 of 6.55.

As for `COc1cc(N2CCC3(CCN(S(=O)(=O)c4ccc(S(N)(=O)=O)cc4)CC3)C2=O)ccc1-c1cn[nH]c1` [Example 213, 4-({2-[3-methoxy-4-(1H-pyrazol-4-yl)phenyl]-1-oxo-2,8-diazaspiro[4.5]decan-8-yl}sulfonyl)benzene-1-sulfonamide], the negative-log IC50 (pIC50) was 6.34.

For the molecule `COc1cc(N2CCC3(CCN(C(=O)Nc4cccnc4)CC3)C2=O)ccc1-c1cn[nH]c1` [Example 214, 2-[3-methoxy-4-(1H-pyrazol-4-yl)phenyl]-1-oxo-N-(pyridin-3-yl)-2,8-diazaspiro[4.5]decane-8-carboxamide], the negative logarithm of the IC50 (pIC50) is 5.83. This pIC50 is 0.51 log units lower than that of the molecule before.

For `COc1cc(N2CCC3(CCN(C(=O)Nc4ccc(N(C)C)cc4)CC3)C2=O)ccc1-c1cn[nH]c1` [Example 215, N-[4-(dimethylamino)phenyl]-2-[3-methoxy-4-(1H-pyrazol-4-yl)phenyl]-1-oxo-2,8-diazaspiro[4.5]decane-8-carboxamide], the pIC50 was 6.10.

`COc1cccc(NC(=O)N2CCC3(CC2)CCN(c2ccc(-c4cn[nH]c4)c(OC)c2)C3=O)c1` [Example 216, 2-[3-methoxy-4-(1H-pyrazol-4-yl)phenyl]-N-(3-methoxyphenyl)-1-oxo-2,8-diazaspiro[4.5]decane-8-carboxamide]: the negative logarithm of the IC50 (pIC50) is 5.65.

Turning to `COc1ccc(NC(=O)N2CCC3(CC2)CCN(c2ccc(-c4cn[nH]c4)c(OC)c2)C3=O)cc1` [Example 217, 2-[3-methoxy-4-(1H-pyrazol-4-yl)phenyl]-N-(4-methoxyphenyl)-1-oxo-2,8-diazaspiro[4.5]decane-8-carboxamide], the pIC50 was 5.61.

Turning to `COc1cc(N2CCC3(CCN(S(=O)(=O)c4ccc(S(C)(=O)=O)cc4)CC3)C2=O)ccc1-c1cn[nH]c1` [Example 218, 8-(4-methanesulfonylbenzenesulfonyl)-2-[3-methoxy-4-(1H-pyrazol-4-yl)phenyl]-2,8-diazaspiro[4.5]decan-1-one], the negative-log IC50 (pIC50) was 6.07.

With `COc1cc(N2CCC3(CCN(C(=O)c4ccc(N5CCN(Cc6cnc7ccccc7n6)CC5)cc4)CC3)C2=O)ccc1-c1cn[nH]c1` [Example 219, 2-[3-methoxy-4-(1H-pyrazol-4-yl)phenyl]-8-(4-{4-[(quinoxalin-2-yl)methyl]piperazin-1-yl}benzoyl)-2,8-diazaspiro[4.5]decan-1-one], the pIC50 is 8.72. This pIC50 lies 2.65 log units higher than the previous one.

As to `COc1cc(N2CCC3(CCN(C(=O)c4ccc(N5CCN(Cc6ccc(-n7ccnc7)cc6)CC5)cc4)CC3)C2=O)ccc1-c1cn[nH]c1` [Example 220, 8-[4-(4-{[4-(1H-imidazol-1-yl)phenyl]methyl}piperazin-1-yl)benzoyl]-2-[3-methoxy-4-(1H-pyrazol-4-yl)phenyl]-2,8-diazaspiro[4.5]decan-1-one], the negative-log IC50 (pIC50) was 9.52.

Molecule `COc1cc(N2CCC3(CCN(C(=O)c4ccc(N5CCN(CCOCc6ccccc6)CC5)cc4)CC3)C2=O)ccc1-c1cn[nH]c1` [Example 221, 8-(4-{4-[2-(benzyloxy)ethyl]piperazin-1-yl}benzoyl)-2-[3-methoxy-4-(1H-pyrazol-4-yl)phenyl]-2,8-diazaspiro[4.5]decan-1-one] gave a pIC50 of 9.40.

Turning to `COc1cc(N2CCC3(CCN(C(=O)c4ccc(N5CCN(CC(c6ccccc6)c6ccccc6)CC5)cc4)CC3)C2=O)ccc1-c1cn[nH]c1` [Example 222, 8-{4-[4-(2,2-diphenylethyl)piperazin-1-yl]benzoyl}-2-[3-methoxy-4-(1H-pyrazol-4-yl)phenyl]-2,8-diazaspiro[4.5]decan-1-one], the negative logarithm of the IC50 (pIC50) was 8.03. This pIC50 is 1.37 log units lower than that of the molecule before.

As for `COc1cc(N2CCC3(CCN(C(=O)c4ccc(N5CCN(Cc6ccccc6Cl)CC5)cc4)CC3)C2=O)ccc1-c1cn[nH]c1` [Example 223, 8-(4-{4-[(2-chlorophenyl)methyl]piperazin-1-yl}benzoyl)-2-[3-methoxy-4-(1H-pyrazol-4-yl)phenyl]-2,8-diazaspiro[4.5]decan-1-one], the pIC50 is 8.96. Against the preceding molecule, the pIC50 is 0.93 log units higher.

For the molecule `COc1cc(N2CCC3(CCN(C(=O)c4ccc(N5CCN(Cc6csnn6)CC5)cc4)CC3)C2=O)ccc1-c1cn[nH]c1` [Example 224, 2-[3-methoxy-4-(1H-pyrazol-4-yl)phenyl]-8-(4-{4-[(1,2,3-thiadiazol-4-yl)methyl]piperazin-1-yl}benzoyl)-2,8-diazaspiro[4.5]decan-1-one], the pIC50 was 8.82.
